Where two headings read alike, the source gives them in different places.
Target: b-Raf (V600E) (Homo sapiens (Human), UniProt P15056, V600E)
Conditions: read-out: b-Raf IC-50, AlphaScreen
[1] = 60 min pre-incubation, 3 hours reaction
[2] = 60 min pre-incubation, reaction 3 hours at room temperature

Chain of b-Raf (V600E) (P15056 whole entry V600E): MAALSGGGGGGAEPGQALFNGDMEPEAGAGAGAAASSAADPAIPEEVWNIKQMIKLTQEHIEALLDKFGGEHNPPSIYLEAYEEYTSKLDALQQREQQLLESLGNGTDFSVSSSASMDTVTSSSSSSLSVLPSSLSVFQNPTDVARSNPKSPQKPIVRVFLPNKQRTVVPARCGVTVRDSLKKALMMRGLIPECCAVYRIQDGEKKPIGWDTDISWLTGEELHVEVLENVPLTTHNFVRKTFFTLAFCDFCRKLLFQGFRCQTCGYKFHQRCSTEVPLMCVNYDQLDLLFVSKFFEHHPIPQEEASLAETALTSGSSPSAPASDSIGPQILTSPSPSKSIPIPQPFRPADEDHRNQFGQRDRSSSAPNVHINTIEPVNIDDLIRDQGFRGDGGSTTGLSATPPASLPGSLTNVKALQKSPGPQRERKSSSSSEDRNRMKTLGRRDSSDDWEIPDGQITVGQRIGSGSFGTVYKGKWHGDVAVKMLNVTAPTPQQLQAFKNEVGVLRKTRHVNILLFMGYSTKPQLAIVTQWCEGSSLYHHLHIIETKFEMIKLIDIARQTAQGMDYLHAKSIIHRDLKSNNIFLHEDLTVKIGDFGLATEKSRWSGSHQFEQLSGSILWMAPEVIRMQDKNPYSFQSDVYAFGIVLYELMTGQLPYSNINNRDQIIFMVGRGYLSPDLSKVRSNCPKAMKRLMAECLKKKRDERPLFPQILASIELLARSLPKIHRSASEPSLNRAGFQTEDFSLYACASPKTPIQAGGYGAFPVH

Structure (SMILES) | IC50 [1] [nM] | other results
CCOc1nnc(-c2cc(NC(=O)c3cnnc(C(C)(C)C#N)c3)ccc2C)cc1N1CCOCC1 [Example 567, 6-(2-cyanopropan-2-yl)-N-(3-(6-ethoxy-5-morpholinopyridazin-3-yl)-4-methylphenyl)pyridazine-4-carboxamide] | 2 | 
Cc1ccc(NC(=O)c2ccnc(C(F)F)c2)cc1-c1cc(N2CCOCC2)nc(N2C(=O)OC[C@@H]2C)n1 [Example 785, (S)-2-(difluoromethyl)-N-(4-methyl-3-(2-(4-methyl-2-oxooxazolidin-3-yl)-6-morpholinopyrimidin-4-yl)phenyl)isonicotinamide] | 7.5 | 
Cc1ncc(NC(=O)c2ccnc(C(C)(C)O)c2)cc1-c1cc(N2CCOCC2)n2nccc2n1 [Example 797, 2-(2-hydroxypropan-2-yl)-N-(6-methyl-5-(7-morpholinopyrazolo[1,5-a]pyrimidin-5-yl)pyridin-3-yl)isonicotinamide] | 24.7 | 
Cc1ncc(NC(=O)c2ccnc(C(C)(C)C#N)c2)cc1-c1cc(N2CCOCC2)nc(N2C(=O)OC[C@@H]2C)n1 [Example 784, (S)-2-(2-cyanopropan-2-yl)-N-(6-methyl-5-(2-(4-methyl-2-oxooxazolidin-3-yl)-6-morpholinopyrimidin-4-yl)pyridin-3-yl)isonicotinamide] | 200 | 
CNC(=O)c1ncc(-c2cc(NC(=O)c3ccnc(C(C)(F)F)c3)ccc2C)cc1N1CCOCC1 [Example 987, 5-(5-(2-(1,1-difluoroethyl)isonicotinamido)-2-methylphenyl)-N-methyl-3-morpholinopicolinamide] |  | IC50 [2]: 2.63 nM
Cc1ncc(NC(=O)c2ccnc(C(C)(F)F)c2)cc1-c1cc(NCCO)nc(N2CCOCC2)c1 [Example 1041, 2-(1,1-difluoroethyl)-N-(2′-((2-hydroxyethyl)amino)-2-methyl-6′-morpholino-[3,4′-bipyridin]-5-yl)isonicotinamide] |  | IC50 [2]: 5.72 nM
Cc1ncc(NC(=O)c2cncc(C(F)(F)F)c2)cc1-c1cnc(OCC(F)F)c(N2CCOCC2)c1 [Example 935, N-(6′-(2,2-difluoroethoxy)-2-methyl-5′-morpholino-[3,3′-bipyridin]-5-yl)-5-(trifluoromethyl)nicotinamide] |  | IC50 [2]: 2.04 nM
Cc1ncc(NC(=O)c2ccnc(C(C)C)c2)cc1-c1cnc(OC2CCOCC2)c(N2CCOCC2)c1 [Example 313, 2-isopropyl-N-(2-methyl-5′-morpholino-6′-((tetrahydro-2H-pyran-4-yl)oxy)-[3,3′-bipyridin]-5-yl)isonicotinamide] |  | IC50 (Table 2, 3 hours reaction): 7 nM
COc1nnc(-c2cc(NC(=O)c3cccc(C(F)F)c3)cnc2C)cc1N1CCOCC1 [Example 604, 3-(difluoromethyl)-N-(5-(6-methoxy-5-morpholinopyridazin-3-yl)-6-methylpyridin-3-yl)benzamide] | 2.3 | 
Cc1ncc(NC(=O)c2ccc(C(O)CO)c(C(F)(F)F)c2)cc1-c1cc(N2CCOCC2)c2nccn2n1 (centres unmarked) [Example 873, 4-(1,2-dihydroxyethyl)-N-(6-methyl-5-(8-morpholinoimidazo[1,2-b]pyridazin-6-yl)pyridin-3-yl)-3-(trifluoromethyl)benzamide] |  | IC50 [2]: 2.8 nM
Cn1cc(-c2cc(C(=O)Nc3cccc(C(C)(C)C#N)c3)ccc2Cl)cc(N2CCOCC2)c1=O [Example 427, 4-chloro-N-(3-(2-cyanopropan-2-yl)phenyl)-3-(1-methyl-5-morpholino-6-oxo-1,6-dihydropyridin-3-yl)benzamide] |  | IC50 (Table 2, 3 hours reaction): 6 nM
Cc1ccc(NC(=O)c2ccnc(C(C)(C)C#N)c2)cc1-c1cncc(N2CCOCC2)n1 [Example 531, 2-(2-cyanopropan-2-yl)-N-(4-methyl-3-(6-morpholinopyrazin-2-yl)phenyl)isonicotinamide] | 5 | 
Cc1ccc(NC(=O)c2ccnc(C(C)C)c2)cc1-c1cc(N2CCOCC2)n(C)c(=O)c1 [Example 482, 2-isopropyl-N-(4-methyl-3-(1-methyl-6-morpholino-2-oxo-1,2-dihydropyridin-4-yl)phenyl)isonicotinamide] | 0.6 | 
Cc1ncc(NC(=O)c2ccnc(C(F)(F)F)c2)cc1-c1cncc(N2CCOCC2)c1 [Example 295] |  | IC50 (Table 2, 3 hours reaction): 3.6 nM

From patent US9694016B2 (Novartis AG, priority 2013, dated 2017)
